Measured values: the supplement of paper PMC10307832

How the values were obtained:
Assay in all cases: relative viability (nuclei count vs DMSO), 5 days (fraction); higher = more cells survive
[1] = compound: C1/C(=C\C2=CC=CS2)/C(=O)/C(=C/C3=CC=CS3)/C1 + CCNC(=O)c1noc(-c2cc(C(C)C)c(O)cc2O)c1-c1ccc(CN2CCOCC2)cc1 [Luminespib] (partner 0.01 µM)
Outline: (§1)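 The day after seeding in 1536-well plates, lung cancer cell lines were treated by pin tool with a single drug, or with a fixed anchor-drug dose together with five library-drug doses (not always all listed) in √10 steps. After 5 days, a combined fix-and-stain solution (final 0.05% Triton X-100, 1% formaldehyde, 1 ug/ml Hoechst) was added. Nuclei counted on 4× images gave relative viability as treated counts over vehicle counts, reported as the median of duplicate plates.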

[2] = compound: C1/C(=C\C2=CC=CS2)/C(=O)/C(=C/C3=CC=CS3)/C1 + Cc1nc(Nc2ncc(C(=O)Nc3c(C)cccc3Cl)s2)cc(N2CCN(CCO)CC2)n1 [Dasatinib] (partner 0.075 µM)
Outline: as §1

TPCA-1 + OSI-027 = compound: C1=CC(=CC=C1C2=CC(=C(S2)NC(=O)N)C(=O)N)F [TPCA-1] + COc1cccc2cc(-c3nc([C@H]4CC[C@H](C(=O)O)CC4)n4ncnc(N)c34)[nH]c12 [OSI-027] (partner 0.5 µM)
Outline: as §1

[3] = compound: C[C@]12O[C@H](C[C@]1(O)CO)n1c3ccccc3c3c4c(c5c6ccccc6n2c5c31)CNC4=O [Lestaurtinib] + O=C(CCCCCCC(=O)Nc1ccccc1)NO [Vorinostat] (partner 1 µM)
Outline: as §1

Cell Line | relative viability ([1]; first compound 0.2 µM) | relative viability ([1]; first compound 0.6325 µM) | relative viability ([1]; first compound 2 µM) | relative viability ([1]; first compound 6.325 µM) | relative viability ([1]; first compound 20 µM) | relative viability ([2]; first compound 0.2 µM) | relative viability ([2]; first compound 0.6325 µM) | relative viability ([2]; first compound 2 µM) | relative viability ([2]; first compound 6.325 µM) | relative viability ([2]; first compound 20 µM) | relative viability (TPCA-1 + OSI-027; first compound 0.04 µM) | relative viability (TPCA-1 + OSI-027; first compound 0.1265 µM) | relative viability (TPCA-1 + OSI-027; first compound 0.4 µM) | relative viability (TPCA-1 + OSI-027; first compound 1.265 µM) | relative viability (TPCA-1 + OSI-027; first compound 4 µM) | relative viability ([3]; first compound 0.005 µM) | relative viability ([3]; first compound 0.01581 µM) | relative viability ([3]; first compound 0.05 µM) | relative viability ([3]; first compound 0.1581 µM) | relative viability ([3]; first compound 0.5 µM)
201T | 1.14 | 1.05 | 1.04 | 1.03 | 1.01 | 0.633 | 0.523 | 0.529 | 0.493 | 0.612 | 0.781 | 0.751 | 0.782 | 0.669 | 0.484 | 1.03 | 1.12 | 1.01 | 0.927 | 0.771
A-427 | 1.01 | 0.905 | 0.939 | 0.876 | 0.977 | 0.841 | 0.721 | 0.644 | 0.722 | 0.708 | 0.528 | 0.359 | 0.546 | 0.332 | 0.195 | 0.778 | 0.995 | 0.766 | 0.447 | 0.208
ABC-1 | 0.33 | 0.853 | 1.04 | 0.428 | 0.521 | 0.648 | 0.576 | 0.626 | 0.7 | 0.701 | 0.592 | 0.515 | 0.62 | 0.475 | 0.293 | 1.02 | 1.2 | 1.03 | 0.887 | 0.329
BEN | 0.477 | 0.403 | 0.476 | 0.344 | 0.253 | 0.325 | 0.38 | 0.316 | 0.35 | 0.298 | 0.261 | 0.269 | 0.303 | 0.346 | 0.242 | 0.631 | 0.704 | 0.59 | 0.477 | 0.309
CAL-12T | 0.374 | 0.316 | 0.404 | 0.444 | 0.364 | 0.513 | 0.504 | 0.566 | 0.341 | 0.48 | 0.678 | 0.614 | 0.664 | 0.523 | 0.185 | 0.793 | 0.881 | 0.622 | 0.484 | 0.241
COR-L23 | 0.583 | 0.692 | 0.577 | 0.721 | 0.544 | 0.571 | 0.48 | 0.571 | 0.429 | 0.492 | 0.749 | 0.706 | 0.823 | 0.683 | 0.286 | 0.618 | 0.433 | 0.294 | 0.212 | 0.115
COR-L 105 | 0.97 | 0.502 | 0.808 | – | 0.586 | 0.453 | 0.341 | 0.339 | – | 0.302 | 0.646 | 0.602 | 0.707 | 0.649 | 0.396 | 0.949 | 0.676 | 0.678 | 0.445 | 0.402
ChaGo-K-1 | 0.62 | 0.652 | 0.45 | 0.295 | 0.22 | 0.546 | 0.669 | 0.592 | 0.51 | 0.286 | 0.652 | 0.518 | 0.617 | 0.577 | 0.276 | 0.767 | 0.807 | 0.614 | 0.465 | 0.356
EKVX | 0.914 | 0.83 | 0.904 | 0.678 | 0.842 | 0.556 | 0.433 | 0.519 | – | 0.459 | 0.806 | 0.671 | 0.771 | 0.626 | 0.586 | 0.744 | 0.742 | 0.765 | 0.578 | 0.368
EMC-BAC-2 | 1.23 | 1.23 | 1.19 | 1.09 | 1.12 | 0.359 | 0.372 | 0.366 | 0.306 | 0.431 | 0.383 | 0.38 | 0.45 | 0.221 | 0.265 | 0.32 | 0.703 | 0.337 | 0.317 | 0.222
EPLC-272H | 0.53 | 0.326 | 0.267 | 0.513 | 0.561 | 0.322 | 0.332 | 0.45 | 0.349 | 0.311 | 0.346 | 0.236 | 0.305 | 0.277 | 0.288 | 0.394 | 0.463 | 0.496 | 0.276 | 0.0829
H3255 | 1.21 | 0.855 | 0.954 | 0.871 | 0.907 | 0.298 | 0.366 | 0.568 | 0.321 | 0.289 | 0.674 | 0.578 | 0.592 | 0.463 | 0.483 | 0.769 | 0.928 | 0.752 | 0.651 | 0.402
HARA | 0.785 | 0.923 | 1.09 | 0.853 | 0.791 | 0.275 | 0.3 | 0.338 | 0.269 | 0.252 | 0.811 | 0.454 | 0.627 | 0.355 | 0.131 | 0.559 | 0.648 | 0.53 | 0.311 | 0.104
HCC-15 | 0.396 | 0.245 | 0.234 | 0.211 | 0.219 | 0.692 | 0.61 | 0.65 | 0.489 | 0.586 | 0.831 | 0.492 | 0.677 | 0.504 | 0.262 | 0.88 | 0.983 | 0.701 | 0.446 | 0.205
HCC-44 | 1.09 | 1.19 | 1.08 | 0.942 | 0.965 | – | – | – | – | – | 0.64 | 0.462 | 0.503 | – | 0.495 | 1.06 | 1.13 | 1.1 | 1.23 | 0.446
HCC-78 | – | – | – | – | – | 0.332 | 0.461 | 0.537 | 0.413 | 0.291 | 0.411 | 0.357 | 0.385 | 0.335 | 0.337 | 0.442 | 0.407 | 0.386 | 0.311 | 0.243
HCC-366 | – | – | – | – | – | 0.638 | 0.592 | 0.751 | 0.608 | 0.474 | 1.07 | 0.8 | 0.914 | 0.52 | 0.0324 | 0.351 | 0.469 | 0.335 | 0.317 | 0.19
HCC-827 | 0.85 | 0.608 | 0.454 | 0.592 | 0.636 | 0.405 | 0.366 | 0.31 | 0.265 | 0.31 | 0.793 | 0.782 | 0.729 | 0.706 | 0.503 | 0.817 | 0.961 | 0.869 | 0.924 | 0.244
HOP-62 | 0.992 | 1.03 | 0.909 | 0.861 | 0.918 | 0.678 | 0.683 | 0.729 | 0.651 | 0.61 | 0.872 | 0.748 | 0.96 | 0.574 | 0.716 | 0.632 | 0.767 | 0.494 | 0.426 | 0.295
IA-LM | – | – | – | – | – | – | – | – | – | – | – | – | – | – | – | 1.2 | 1.05 | 1.02 | 1.33 | 0.625
LC-2-ad | 1.2 | 1.14 | 1.12 | 1.04 | 0.961 | 0.667 | 0.59 | 0.655 | 0.482 | 0.626 | 0.971 | 0.753 | 0.813 | 0.744 | 0.407 | 0.713 | 0.768 | 0.41 | 0.296 | 0.203
LCLC-97TM1 | 0.734 | 0.813 | 0.754 | 0.782 | 0.803 | 0.896 | 0.776 | 0.791 | 0.672 | 0.811 | 0.584 | 0.323 | 0.486 | 0.411 | 0.283 | – | 0.744 | 0.389 | 0.187 | 0.155
LCLC-103H | 1.05 | 0.901 | 1.07 | 0.936 | 0.989 | 0.402 | 0.466 | 0.572 | 0.481 | 0.444 | 0.458 | 0.44 | 0.485 | 0.443 | 0.387 | 0.783 | 0.83 | 0.646 | 0.5 | 0.395
LK-2 | 0.166 | 0.187 | 0.177 | 0.202 | 0.212 | 0.359 | 0.443 | 0.345 | 0.29 | 0.346 | 0.222 | 0.174 | 0.232 | 0.205 | 0.198 | 0.237 | 0.353 | 0.198 | 0.193 | 0.154
LOU-NH91 | 0.332 | 0.358 | 0.413 | 0.328 | 0.338 | 0.559 | 0.582 | 0.585 | 0.514 | 0.531 | 0.75 | 0.662 | 0.735 | 0.793 | 0.73 | 0.824 | 0.962 | 0.646 | 0.422 | 0.303
LU99A | 0.245 | 0.201 | 0.268 | 0.224 | 0.281 | 0.611 | 0.539 | 0.714 | 0.623 | 0.554 | 0.325 | 0.297 | 0.322 | 0.232 | 0.258 | 0.437 | 0.484 | 0.416 | 0.213 | 0.169
NCI-H1563 | 0.567 | 0.511 | 0.552 | 0.534 | 0.492 | 0.452 | 0.462 | 0.504 | 0.453 | 0.465 | 0.784 | 0.766 | 0.827 | 0.712 | 0.688 | – | – | – | – | –
NCI-H1623 | 0.672 | 0.601 | 0.528 | 0.372 | 0.511 | 0.53 | 0.561 | 0.52 | 0.52 | 0.53 | 0.497 | 0.509 | 0.484 | 0.514 | 0.389 | – | – | – | – | –
NCI-H1648 | – | – | – | – | – | – | – | – | – | – | 0.266 | 0.244 | 0.247 | 0.208 | 0.257 | – | 0.543 | – | 0.807 | 0.29
NCI-H1792 | 0.509 | 0.285 | 0.468 | 0.583 | 0.388 | 0.774 | 0.613 | 0.968 | 0.758 | 0.752 | 0.701 | 0.653 | 0.696 | 0.618 | 0.564 | – | – | – | – | –
